Where “and” joins values, the source holds several entries; their conditions need not be identical. Equal values may be shown once.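 All cell lines were grown in 96-well plates and treated with compound for 48 hours. GI50 marks 50% less growth. Definition used: TGI = concentration required for complete inhibition of growth.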
Columns and labels:
Experiment in all cases: inhibition of tumour cell growth, NCI panel, 48 h
[1] = test system: A498 renal
[2] = test system: ACHN renal
[3] = test system: CCRF-CEM leukemia
[4] = test system: MCF7 breast
[5] = test system: PC-3 prostate
[6] = test system: SF-539 CNS
[7] = test system: SNB-19 CNS
[8] = test system: SNB-75 CNS
[9] = test system: SW-620 colon

Row | SMILES | TGI [1] [µM] | TGI [2] | TGI [3] [µM] | TGI [4] | TGI [5] | TGI [6] | TGI [7] | TGI [8] | TGI [9] [µM] | GI50 [8] [µM] | GI50 [2] [µM] | GI50 [3] | GI50 [4] [µM] | GI50 [6] [µM] | GI50 [7] [µM]
1 | N#Cc1nc(C2CCC2)oc1N | > 100 | > 100 µM | 54.7 | > 100 µM | > 100 µM | > 100 µM | > 100 µM | > 100 µM | > 100 |  |  |  |  |  | 
2 | CC(C)OC(=O)OCSc1ccccc1N=Cc1cccc([N+](=O)[O-])c1 | > 10 | > 10 µM | > 10 | > 10 µM | > 10 µM | > 10 µM | > 10 µM | > 10 µM | > 10 |  |  |  |  |  | 
3 | O=[N+]([O-])c1ccc2c(c1)C1=NN(c3ccccc3)C(c3ccccc3Br)C1CCC2 (stereo not given) | > 50 | > 50 µM | 27.4 | > 50 µM | > 50 µM | > 50 µM | > 50 µM | > 50 µM | > 50 |  |  |  |  |  | 
4 | CC(=O)c1cnc2oc3ccc(O)cc3c2c1-c1ccccc1 | 88.6 | > 100 µM | > 100 | > 100 µM | > 100 µM | 46.2 µM | > 100 µM | 22 µM | > 100 | 2.57 |  |  |  |  | 
5 | O=C1CSC2=NC3=C(COC/C3=C\c3ccc(Br)cc3)C(c3ccc(Br)cc3)N12 (stereo not given) | > 100 | > 100 µM | 61.9 | > 100 µM | > 100 µM | > 100 µM | > 100 µM | > 100 µM | > 100 |  |  |  |  |  | 
6 | [O-]/[N+](=C\c1ccccc1OC(=S)S)c1ccc(Cl)cc1 | > 100 | > 100 µM | > 100 | 64.8 µM | > 100 µM | > 100 µM | > 100 µM | > 100 µM | > 100 |  |  |  |  |  | 
7 | C=Cc1ccccc1C1(O)C=CC(OC)(OC)C=C1 | 41 | 39 µM | 8.46 | 13.3 µM | 29.1 µM | 6.4 µM | 30.8 µM | 38.7 µM | 11.5 |  |  |  |  |  | 
8 | NC(=O)N/N=C1\CC2C3CC4C2C4C13 (stereo not given) | > 100 | > 100 µM | > 100 | > 100 µM | > 100 µM | > 100 µM | > 100 µM | > 100 µM | > 100 |  |  |  |  |  | 
9 | COc1cc(/C=C/C=C2\CC/C(=C\C=C\c3ccc(O)c(OC)c3)C2=O)ccc1O | > 100 | > 100 µM | 8.26 | > 100 µM | > 100 µM | > 100 µM | > 100 µM | > 100 µM | > 100 |  |  |  |  |  | 
10 | CCOC(=O)/C=C(\C(=O)OCC)n1ccc(=O)n(Cc2cn(COCCOC(C)=O)nn2)c1=O | > 69.5 | 17.3 µM | 11.9 | 35.1 µM | 41.5 µM | 38.9 µM | > 89.5 µM | > 69.4 µM | 31.4 |  |  |  |  |  | 
11 | C=C(CN(C)C)C(=O)c1ccccc1[N+](=O)[O-] | > 92 | 29.5 µM and 14.8 µM | 8.06 | 31.1 µM and 24.5 µM | 31.3 µM and 13.5 µM | 71.4 µM and 40.4 µM | > 68.2 µM and 47.7 µM | 66.3 µM and 44.4 µM | 31.3 | 15.8 | 3.79 | 2.7 µM and 2.18 µM | 5.02 | 18.6 | 23.3
12 | N#Cc1nc(NC(=O)c2ccccc2C(=O)O)c(C#N)[nH]1 | > 100 | > 100 µM | > 100 | > 100 µM | > 100 µM | > 100 µM | > 100 µM | > 100 µM | > 100 |  |  |  |  |  | 
